Test results published in article PMC10763615, “Identification and engineering of potent cyclic peptides with selective or promiscuous binding through biochemical profiling and bioinformatic data analysis” (RSC Chemical Biology, 2023).
Read-outs that look alike come from different tables or passages of the source. Positions of bridges follow the written chain, without caps; N, C: chain ends. Residues, ends and D or L forms follow the SMILES beside them.

Legend:
Type in all cases: binding
FGF-R4 ECD = target: T1, FGF-R4 ECD (Homo sapiens, UniProt P22455); experiment: single concentration BLI of crude peptides; conditions: read-out: KD (4)
T1 construct: DNA constructs for the extracellular domain (ECD) of human FGF-; HPC4 (C); made in house; host or cells: HEK 293-6E
T1 sequence (P22455 22-369 limits assumed): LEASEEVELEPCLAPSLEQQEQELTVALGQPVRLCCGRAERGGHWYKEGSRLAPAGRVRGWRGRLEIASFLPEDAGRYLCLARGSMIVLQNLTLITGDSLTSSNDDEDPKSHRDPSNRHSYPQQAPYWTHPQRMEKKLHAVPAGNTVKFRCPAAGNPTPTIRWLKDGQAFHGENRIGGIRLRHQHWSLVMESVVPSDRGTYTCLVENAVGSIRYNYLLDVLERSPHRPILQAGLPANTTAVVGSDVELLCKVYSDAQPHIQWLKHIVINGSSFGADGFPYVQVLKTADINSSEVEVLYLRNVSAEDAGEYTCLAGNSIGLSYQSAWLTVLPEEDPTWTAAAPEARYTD
How it was run: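 Biotinylated FGF-R ECD on streptavidin biosensors was dipped into ~1 μM crude peptide in PBS pH7.4 with 0.05% Tween-20 and 0.01% BSA for association, then into buffer for dissociation, and followed by BLI. Fitted KD values were adjusted for peptide concentration measured by UPLC-CAD.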

FGF-R1C ECD = target: T2, FGF-R1C ECD (Homo sapiens, UniProt P11362); experiment: biochemical; design: DNA constructs for the extracellular domain (ECD) of human FGF-; HPC4 (C); made in house; host or cells: HEK 293-6E
T2 sequence (P11362 22-376 limits assumed): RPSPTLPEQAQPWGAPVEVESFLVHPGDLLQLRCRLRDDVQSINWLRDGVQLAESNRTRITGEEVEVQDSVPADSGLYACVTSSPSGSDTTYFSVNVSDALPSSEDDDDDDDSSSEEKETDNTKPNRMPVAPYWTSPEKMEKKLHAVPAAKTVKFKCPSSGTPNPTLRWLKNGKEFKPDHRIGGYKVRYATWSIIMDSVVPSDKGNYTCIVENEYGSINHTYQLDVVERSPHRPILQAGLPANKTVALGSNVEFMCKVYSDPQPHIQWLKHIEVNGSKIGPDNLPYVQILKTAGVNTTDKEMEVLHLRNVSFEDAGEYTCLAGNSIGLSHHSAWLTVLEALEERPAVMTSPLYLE
How it was run: (§1)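 Biolayer interferometry with biotinylated FGF-R ECD on streptavidin biosensors in PBS pH 7.4, 0.05% Tween-20, 0.01% BSA. Multi-concentration: purified peptide dilution series fitted to a multi-point KD model.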

FGF-R3C ECD = target: T3, FGF-R3C ECD (Homo sapiens, UniProt P22607); experiment: biochemical; design: DNA constructs for the extracellular domain (ECD) of human FGF-; HPC4 (C); made in house; host or cells: HEK 293-6E
T3 sequence (P22607 23-375 limits assumed): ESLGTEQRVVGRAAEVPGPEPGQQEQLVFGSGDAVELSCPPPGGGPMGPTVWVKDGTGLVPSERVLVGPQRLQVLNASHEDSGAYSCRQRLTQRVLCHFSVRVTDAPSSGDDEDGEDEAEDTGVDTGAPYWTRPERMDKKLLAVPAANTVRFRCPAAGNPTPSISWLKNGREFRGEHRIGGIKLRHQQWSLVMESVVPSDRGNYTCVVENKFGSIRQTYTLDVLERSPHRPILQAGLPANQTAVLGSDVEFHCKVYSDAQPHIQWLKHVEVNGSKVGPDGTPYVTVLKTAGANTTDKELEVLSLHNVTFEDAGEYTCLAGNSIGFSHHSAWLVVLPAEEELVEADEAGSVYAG
How it was run: as §1

[1] = crude T18 selection 1 (1:1:1) peptides, single concentration BLI (Table S4)
[2] = crude NNK peptides, single concentration BLI (Table S3)

Row | Structure (SMILES) | Kd (FGF-R4 ECD; [1]) | Kd (FGF-R1C ECD) | Kd (FGF-R3C ECD) | Kd (FGF-R4 ECD; [2])
1 | CSCC[C@H](NC(C)=O)C(=O)N[C@H]1CSSC[C@@H](C(=O)NCC(=O)N[C@@H](CO)C(=O)NCC(=O)N[C@@H](CO)C(=O)N[C@@H](CC(=O)O)C(=O)N[C@@H](Cc2ccc(O)cc2)C(=O)N[C@@H](CCCCN)C(=O)N[C@@H](CC(=O)O)C(=O)N[C@@H](CC(=O)O)C(=O)N[C@@H](CC(=O)O)C(=O)N[C@@H](CC(=O)O)C(=O)N[C@@H](CCCCN)C(N)=O)NC(=O)[C@H](Cc2ccc(O)cc2)NC(=O)[C@H](C(C)C)NC(=O)[C@H](Cc2ccc(O)cc2)NC(=O)[C@H](Cc2c[nH]c3ccccc23)NC(=O)[C@H](CO)NC(=O)[C@H](CCCCN)NC(=O)[C@H](Cc2c[nH]cn2)NC(=O)[C@H](Cc2ccc(O)cc2)NC(=O)[C@H](Cc2ccc(O)cc2)NC(=O)[C@H](Cc2ccccc2)NC(=O)[C@H](Cc2c[nH]c3ccccc23)NC(=O)[C@H](CCC(=O)O)NC1=O (Ac-MCEWFYYHKSWYVYCGSGSDYKDDDDK-NH2; disulfide 2-15) | > 10 µM | 0.191 µM | > 10 µM | 
2 | CC[C@H](C)[C@@H]1NC(=O)[C@H](CCCCN)NC(=O)[C@H](Cc2ccc(O)cc2)NC(=O)[C@H](CC(C)C)NC(=O)[C@H](CC(C)C)NC(=O)[C@H](C)NC(=O)[C@H](Cc2ccccc2)NC(=O)[C@@H](NC(=O)[C@H](CCSC)NC(C)=O)CSSC[C@@H](C(=O)NCC(=O)N[C@@H](CO)C(=O)NCC(=O)N[C@@H](CO)C(=O)N[C@@H](CC(=O)O)C(=O)N[C@@H](Cc2ccc(O)cc2)C(=O)N[C@@H](CCCCN)C(=O)N[C@@H](CC(=O)O)C(=O)N[C@@H](CC(=O)O)C(=O)N[C@@H](CC(=O)O)C(=O)N[C@@H](CC(=O)O)C(=O)N[C@@H](CCCCN)C(N)=O)NC(=O)[C@H](CCCNC(=N)N)NC(=O)[C@H](CO)NC(=O)[C@H](CC(C)C)NC1=O (Ac-MCFALLYKILSRCGSGSDYKDDDDK-NH2; disulfide 2-13) |  | > 10 µM | > 10 µM | > 10 µM
3 | CSCC[C@H](NC(C)=O)C(=O)N[C@H]1CSSC[C@@H](C(=O)NCC(=O)N[C@@H](CO)C(=O)NCC(=O)N[C@@H](CO)C(=O)N[C@@H](CC(=O)O)C(=O)N[C@@H](Cc2ccc(O)cc2)C(=O)N[C@@H](CCCCN)C(=O)N[C@@H](CC(=O)O)C(=O)N[C@@H](CC(=O)O)C(=O)N[C@@H](CC(=O)O)C(=O)N[C@@H](CC(=O)O)C(=O)N[C@@H](CCCCN)C(N)=O)NC(=O)[C@H](Cc2ccc(O)cc2)NC(=O)[C@H](C(C)C)NC(=O)[C@H](Cc2ccccc2)NC(=O)[C@H](C(C)C)NC(=O)[C@H](CCCCN)NC(=O)[C@H]([C@@H](C)O)NC(=O)[C@H](CCCCN)NC(=O)[C@H](Cc2c[nH]cn2)NC(=O)[C@H](CC(=O)O)NC(=O)[C@H](CC(C)C)NC(=O)[C@H](Cc2ccccc2)NC1=O (Ac-MCFLDHKTKVFVYCGSGSDYKDDDDK-NH2; disulfide 2-14) | 0.13 µM | > 10 µM | > 10 µM | 
4 | CC[C@H](C)[C@@H]1NC(=O)[C@@H]2CCCN2C(=O)[C@H](Cc2c[nH]c3ccccc23)NC(=O)[C@H](Cc2ccccc2)NC(=O)[C@@H](NC(=O)[C@H](CCSC)NC(C)=O)CSSC[C@@H](C(=O)NCC(=O)N[C@@H](CO)C(=O)NCC(=O)N[C@@H](CO)C(=O)N[C@@H](CC(=O)O)C(=O)N[C@@H](Cc2ccc(O)cc2)C(=O)N[C@@H](CCCCN)C(=O)N[C@@H](CC(=O)O)C(=O)N[C@@H](CC(=O)O)C(=O)N[C@@H](CC(=O)O)C(=O)N[C@@H](CC(=O)O)C(=O)N[C@@H](CCCCN)C(N)=O)NC(=O)[C@H](C)NC(=O)[C@H](CCSC)NC(=O)[C@H](Cc2ccccc2)NC(=O)[C@H](CCCCN)NC(=O)[C@H](Cc2ccc(O)cc2)NC(=O)[C@H](Cc2c[nH]c3ccccc23)NC1=O (Ac-MCFWPIWYKFMACGSGSDYKDDDDK-NH2; disulfide 2-13) |  | > 10 µM | > 10 µM | > 10 µM
5 | CSCC[C@H](NC(C)=O)C(=O)N[C@H]1CSSC[C@@H](C(=O)NCC(=O)N[C@@H](CO)C(=O)NCC(=O)N[C@@H](CO)C(=O)N[C@@H](CC(=O)O)C(=O)N[C@@H](Cc2ccc(O)cc2)C(=O)N[C@@H](CCCCN)C(=O)N[C@@H](CC(=O)O)C(=O)N[C@@H](CC(=O)O)C(=O)N[C@@H](CC(=O)O)C(=O)N[C@@H](CC(=O)O)C(=O)N[C@@H](CCCCN)C(N)=O)NC(=O)[C@H](C)NC(=O)[C@H](CC(C)C)NC(=O)[C@H](CC(C)C)NC(=O)[C@H](C)NC(=O)[C@@H]2CCCN2C(=O)[C@H](Cc2ccccc2)NC(=O)[C@H](Cc2ccccc2)NC(=O)[C@H](CCCNC(=N)N)NC(=O)[C@H](Cc2c[nH]c3ccccc23)NC(=O)[C@H](Cc2ccccc2)NC1=O (Ac-MCFWRFFPALLACGSGSDYKDDDDK-NH2; disulfide 2-13) |  | > 10 µM | > 10 µM | > 10 µM
6 | CC[C@H](C)[C@@H]1NC(=O)[C@H](CO)NC(=O)[C@H](Cc2ccccc2)NC(=O)[C@H](Cc2c[nH]cn2)NC(=O)CNC(=O)[C@@H](NC(=O)[C@H](CCSC)NC(C)=O)CSSC[C@@H](C(=O)NCC(=O)N[C@@H](CO)C(=O)NCC(=O)N[C@@H](CO)C(=O)N[C@@H](CC(=O)O)C(=O)N[C@@H](Cc2ccc(O)cc2)C(=O)N[C@@H](CCCCN)C(=O)N[C@@H](CC(=O)O)C(=O)N[C@@H](CC(=O)O)C(=O)N[C@@H](CC(=O)O)C(=O)N[C@@H](CC(=O)O)C(=O)N[C@@H](CCCCN)C(N)=O)NC(=O)[C@H](Cc2c[nH]c3ccccc23)NC(=O)[C@H](CCCCN)NC(=O)[C@H](Cc2ccccc2)NC(=O)[C@H](Cc2c[nH]c3ccccc23)NC(=O)[C@H]([C@@H](C)O)NC1=O (Ac-MCGHFSITWFKWCGSGSDYKDDDDK-NH2; disulfide 2-13) |  | > 10 µM | > 10 µM | > 10 µM
7 | CSCC[C@H](NC(C)=O)C(=O)N[C@H]1CSSC[C@@H](C(=O)NCC(=O)N[C@@H](CO)C(=O)NCC(=O)N[C@@H](CO)C(=O)N[C@@H](CC(=O)O)C(=O)N[C@@H](Cc2ccc(O)cc2)C(=O)N[C@@H](CCCCN)C(=O)N[C@@H](CC(=O)O)C(=O)N[C@@H](CC(=O)O)C(=O)N[C@@H](CC(=O)O)C(=O)N[C@@H](CC(=O)O)C(=O)N[C@@H](CCCCN)C(N)=O)NC(=O)[C@H](C(C)C)NC(=O)[C@H](CCCNC(=N)N)NC(=O)[C@H](CCSC)NC(=O)[C@H](C(C)C)NC(=O)[C@H](CCCCN)NC(=O)[C@H](Cc2ccc(O)cc2)NC(=O)[C@H](CC(C)C)NC(=O)[C@H](CC(C)C)NC(=O)[C@H](C(C)C)NC(=O)CNC1=O (Ac-MCGVLLYKVMRVCGSGSDYKDDDDK-NH2; disulfide 2-13) |  | > 10 µM | > 10 µM | 0.124 µM
8 | CC[C@H](C)[C@@H]1NC(=O)[C@H](Cc2c[nH]cn2)NC(=O)[C@@H](NC(=O)[C@H](CCSC)NC(C)=O)CSSC[C@@H](C(=O)NCC(=O)N[C@@H](CO)C(=O)NCC(=O)N[C@@H](CO)C(=O)N[C@@H](CCC(=O)O)C(=O)N[C@@H](CCC(=O)O)C(=O)NCC(=O)N[C@@H](CO)C(=O)NCC(=O)N[C@@H](CO)C(=O)N[C@@H](CC(=O)O)C(=O)N[C@@H](Cc2ccc(O)cc2)C(=O)N[C@@H](CCCCN)C(=O)N[C@@H](CC(=O)O)C(=O)N[C@@H](CC(=O)O)C(=O)N[C@@H](CC(=O)O)C(=O)N[C@@H](CC(=O)O)C(=O)N[C@@H](CCCCN)C(N)=O)NC(=O)[C@H](Cc2c[nH]cn2)NC(=O)[C@H](CCCCN)NC(=O)[C@H](CCCNC(=N)N)NC(=O)[C@H](C(C)C)NC(=O)[C@H](CC(C)C)NC(=O)[C@H](CCC(N)=O)NC(=O)[C@H](Cc2c[nH]c3ccccc23)NC(=O)[C@H](Cc2ccc(O)cc2)NC(=O)[C@H](CCCNC(=N)N)NC1=O (Ac-MCHIRYWQLVRKHCGSGSEEGSGSDYKDDDDK-NH2; disulfide 2-14) | 0.01 µM | > 10 µM | > 10 µM | 
